According to ChEMBL document CHEMBL1130639, “Synthesis of anti-rheumatic agent epoxyquinomicin B” (Bioorg Med Chem Lett, 1998):

Test: Lethal dose upon intraperitoneal administration.
Type: ADME
Conditions: ip

O=C(NC1=CC(=O)[C@]2(CO)O[C@@H]2C1=O)c1ccccc1O
LD50: 50 mg/kg
